Here are results for 3 compounds from patent US5521208A, “Compositions and methods for the treatment of the metabolically impaired and for improved compliance” (Alcon Laboratories, Inc., priority 1993, dated 1996).

For test [1], the target named is T1, Rat Aldose Reductase (AR) (Rattus norvegicus, UniProt P07943).
T1 construct: rat lens supernatant fraction; from tissue; host or cells: rat lens, supernatant fraction
Briefly: In vitro inhibition of aldose reductase (rat lens supernatant fraction). In kind it is biochemical. To be noted: for difference in activity in vitro between A(+) and A(-): Rat AR and Rat L-HDH, conclusion in words; for IC50: ± SEM, n = 3-4, rat lens supernatant, pH 7.5, room temperature. From the text:
(§1) The in vitro inhibiting activity of racemic 2,7-difluoro-4-methoxyspiro[9H-fluorene-9,4'-imidazolidine]-2',5'-dione, prepared in accordance with U.S. Pat. No. 4,864,028 (hereafter referred to as "A(±)") was compared to that of the R(+) and S(-) enantiomers thereof, prepared in accordance with U.S. Pat. No. 5,151,544 (referred to hereafter as "A(+)" and "A(-)", respectively), with respect to aldose reductase and L-hexonate dehydrogenase.
(§2) The test methods used for measuring in vitro inhibition activities of these compounds toward aldose reductase and L-hexonate dehydrogenase are known. The method utilized for measuring the inhibition of aldose reductase is described in B. W. Griffin and L. G. McNatt, "Characterization of the Reduction of 3-Acetylpyridine Adenine Dinucleotide Phosphate by Benzyl Alcohol Catalyzed by Aldose Reductase", Arch. Biochem, Biophys. 246:75-81 (1986). The method utilized for measuring the inhibition of L-hexonate dehydrogenase is described in M. T. DuPriest, B. W. Griffin, D. Kuzmich, and L. G. McNatt "Spiro[fluoreneisothiazolidin]one Dioxides: New Aldose Reductase and L-Hexonate Dehydrogenase Inhibitors", J. Med Chem. 34:3229-3234 (1991). Both methods are based on detection of the rate of increase of fluorescence of NADPH (reduced form of nicotinamide adenine dinucleotide phosphate) or an analog, formed as a product of the enzymatic reaction, i.e., oxidation of an appropriate alcohol substrate by the respective oxidized pyridine species. In the assay for aldose reductase, the reaction mixture contained 50 mmol/L potassium phosphate buffer (pH 7.5), 12 mmol/L benzyl alcohol, 12 μmol/L oxidized 3-acetylpyridine adenine dinucleotide phosphate, and rat lens supernatant fraction (50-100 μg total protein) in a total volume of 1.0 mL. The assay for L-hexonate dehydrogenase consisted of the following components: 50 mmol/L potassium phosphate buffer (pH 7.5), 20 mmol/L L-gulonate, 25 μmol/L NADP+, and rat kidney supernatant fraction (50-100 µg total protein) in a total volume of 1.0 mL. The enzyme-dependent rate of formation of the reduced pyridine nucleotide was monitored with a fluorescence spectrophotometer set at excitation/emission wavelengths of 365/480 nm for the NADP+analog and 365/465 nm for NADP+; slit widths were routinely set at 10 nm. Reactions were carried out at room temperature; blank rates with one component of the reaction omitted were typically less than 10% of the rate of the complete reaction.
The IC50 values (inhibitor concentration producing 50% inhibition of the reaction under the standard assay conditions described) were computed by linearregression analysis of the linear portion of the dose-response curve for each inhibitor.

In test [2] the target is T2, Rat L-Hexonate Dehydrogenase (L-HDH) (Rattus norvegicus, UniProt P51635).
T2 construct: rat kidney supernatant fraction; from tissue; host or cells: rat kidney, supernatant fraction
T2 sequence (P51635 1-325): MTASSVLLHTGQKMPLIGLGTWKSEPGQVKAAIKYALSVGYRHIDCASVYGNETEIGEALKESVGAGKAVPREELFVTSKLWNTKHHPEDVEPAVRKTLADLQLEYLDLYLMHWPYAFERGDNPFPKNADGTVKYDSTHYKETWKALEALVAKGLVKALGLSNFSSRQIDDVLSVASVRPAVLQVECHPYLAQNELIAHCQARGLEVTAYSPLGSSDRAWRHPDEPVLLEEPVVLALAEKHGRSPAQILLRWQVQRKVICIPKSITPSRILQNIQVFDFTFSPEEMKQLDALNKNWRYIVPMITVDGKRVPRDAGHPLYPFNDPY
In words: In vitro inhibition of L-hexonate dehydrogenase (rat kidney supernatant fraction). In kind it is biochemical. To be noted: ± SEM, n = 2-3, pH 7.5, room temperature.
From the text: as §1
as §2, with “The assay for L-hexonate dehydrogenase consisted of the following components: 50 mmol/L potassium phosphate buffer (pH 7.5), 20 mmol/L L-gulonate, 25 μmol/L NADP+, and rat kidney supernatant fraction (50-100 µg total protein) in a total volume of 1.0 mL.” left out, “Reactions were carried out at room temperature; blank rates with one component of the reaction omitted were typically less than 10% of the rate of the complete reaction.” left out

In test [3] the test system is sorbitol in three tissues (lens, sciatic nerve and retina). Briefly: In vivo inhibition of sorbitol in three tissues (lens, sciatic nerve and retina) of severely diabetic rats, dosed orally. As to conditions: for ED50: Rattus norvegicus, 192 h, once a day for eight days. How it is done:
To compare the in vivo efficacy of A(±) (from Example 1) and its enantiomers, A(+) and A(-), the ED50 values (the effective dose, in mg/kg/day, to achieve 50% inhibition) for inhibition of sorbitol in three tissues (lens, sciatic nerve and retina) of severely diabetic rats, dosed orally for eight days, once a day, were recorded.

Test [4] has the same test system. The test is described as above. To be noted: Rattus norvegicus, 192 h, oral, once a day for eight days, footnote 1: ED60, read-out: ED50, Lens (footnote: for lens, ED60 value is given).
Setting [5] is: retina sorbitol, oral, A(-) value is (est.), read-out: ED50, Retina.
[6] abbreviates: sciatic nerve sorbitol, oral, read-out: ED50, S. Nerve.

The structures appear in SMILES notation. Read-outs that look alike come from different tables or passages of the source.

Turning to `COc1cc(F)cc2c1-c1ccc(F)cc1[C@]21NC(=O)NC1=O` [A(-), 2,7-difluoro-4-methoxyspiro[9H-fluorene-9,4'-imidazolidine]-2',5'-dione], the “difference in activity in vitro between A(+) and A(-)” value in test [1] is reported as “no significant difference in activity in vitro”. Also, the IC50 came to 5.9 ± 0.3 µM in test [1] and 3 ± 0.4 µM in test [2]. Also, the median effective dose (ED50) in test [3] (setting [5]) is 2 to 3 mg/kg; in test [3] (setting [6]), 1 mg/kg. Also, the “factor by which less active than A(+)” value in test [3] (in all tissues (lens, sciatic nerve, retina)) was at least 10. In test [3] (lens sorbitol, highest dose (1.5 mg/kg/day), oral, eight days), the “maximum inhibition achieved at the highest dose” value worked out at 40%. In addition, the ED60 in test [4] stood at 1.52 mg/kg/day.
Turning to `COc1cc(F)cc2c1-c1ccc(F)cc1[C@@]21NC(=O)NC1=O` [A(+), 2,7-difluoro-4-methoxyspiro[9H-fluorene-9,4'-imidazolidine]-2',5'-dione], the “difference in activity in vitro between A(+) and A(-)” value in test [1] was “no significant difference in activity in vitro”. For the same compound, the IC50 in test [1] came out at 5.5 ± 0.2 µM; in test [2], 3 ± 0.4 µM. The median effective dose (ED50) in test [3] (setting [5]) amounted to 0.15 mg/kg; in test [3] (setting [6]), 0.08 mg/kg. In addition, the ED60 in test [4] came to 0.15 mg/kg/day.
For the compound `COc1cc(F)cc2c1-c1ccc(F)cc1C21NC(=O)NC1=O` (racemic) [A(±), 2,7-difluoro-4-methoxyspiro[9H-fluorene-9,4'-imidazolidine]-2',5'-dione], the results for the IC50 in test [1] and in test [2] were 5.7 ± 1.7 µM and 2.2 ± 0.9 µM, respectively. In addition, the values for the ED50 in test [3] (setting [5]) and in test [3] (setting [6]) were 0.26 mg/kg and 0.12 mg/kg, respectively. In addition, the “activity relative to A(+)” value in test [3] (sorbitol inhibition in vivo, diabetic rats) is “about 50%”. Besides, the ED60 in test [4] is 0.28 mg/kg/day.
